{"source": "patent US20200347362A1", "about": "“COMPOSITION AND METHOD FOR INCREASING PRODUCTION OF BACTERIOPHAGE USING REACTIVE OXYGEN SPECIES” (Hankuk University of Foreign Studies Research & Business …, priority 2017, published 2020)", "key": {"[1]": {"system": "E. coli", "text": "In the present disclosure, the term “sublethal concentration” refers to a concentration that affects the growth of the bacteria but is not enough to cause bacterial death. The concentration may vary and be determined depending on the particular ROS, bacteria, and/or culture medium employed. In one embodiment of the present disclosure, the sublethal concentration is defined as a minimum concentration at which the growth rate of bacteria remains constant until 1 hr after the treatment with ROS, which begin to decrease 2 hrs after the treatment with ROS.\nH2O2 was used as ROS, which was prepared by 1:2 serial dilution."}, "[2]": {"system": "bacteriophage T4 on E. coli", "details": "solid medium, sub-lethal dose of hydrogen peroxide", "description": "Phage plaque size measurement. Phage plaques were allowed to form on a bacterial lawn and the size measured using a digital caliper.\n(§1) The serially diluted phage solution was plated to a solid medium containing sublethal dose of H2O2 by using a double agar overlay and the number of phages was counted."}, "[3]": {"system": "bacteriophage T4 in E. coli K12 (MG1655)", "description": "E. coli K12 (MG1655) was cultured overnight. The overnight culture was inoculated at 1:100 (vol:vol) ratio to a 10 ml LB broth in a 50 ml tube and incubated for 1 hr to prepare a fresh culture. When the E. coli K12 strain reached an OD600 of 0.3, H2O2 was added at a final concentration of 4.5 mM and incubated further for 1 hr until OD600 of 0.5˜0.7.\nThen T4 was added at a multiplicity of infection (MOI) of 0.001 and incubated further for 5 min at 37° C. in a shaking incubator to allow for phage adsorption. Then the culture was centrifuged at 12,000 rmp for 5 min and the supernatant was removed. Ten ml of fresh LB broth was added to the pellet and resuspended. When the resuspension was completed, which was set to 0 min, the resuspend culture was incubated at a 37° Crotary incubator at 0 min, and 500 μl of the culture was taken at 5 minute intervals. Each of the culture was then plated by a double agar overlay and the number of phages were counted."}, "[4]": {"system": "E. coli", "details": "E. coli cultured in liquid medium with sub-lethal dose of hydrogen peroxide (FIG. 2)", "description": "Bacteria Imaging. The bacterial morphologies were observed under a laser scanning microscope using ZEN software. (Zeiss LSM 700). For sampling, 5˜10 ul of the bacteria was dropped on a glass slide and covered with a coverslip. After 20 min of drying in a fume hood, the bacteria were observed using a 100× objective lens. When the bacteria were cultured using a glass-bottom 96-well black plate (Ibidi #89626), the bacteria were fixed with cold acetone and blocked with 1% BSA in PBST for 30 min.\nas §1"}, "[5]": {"details": "4.5 mM H2O2, liquid medium, T4 at MOI 0.001 (FIG. 3)"}}, "note": "Like-named read-outs stand apart in the source and are kept apart here."}
{"compound": "OO", "note": "[H2O2, hydrogen peroxide]", "values": [{"measurement": "sublethal concentration", "setting": "[1]; liquid medium (FIG. 1)", "value": 4.5, "unit": "mM"}, {"measurement": "sublethal concentration", "setting": "[1]; solid medium", "value": 0.2, "unit": "mM"}, {"measurement": "increase of plaque size (diameter) compared to the control", "setting": "[2]", "value": "at least 5 times"}, {"measurement": "delay of the start of the burst compared to the control", "setting": "[3]; [5]", "value": 5, "unit": "min"}, {"measurement": "increase of the size of the burst compared to the control", "setting": "[3]; [5]", "value": 6, "unit": "times"}, {"measurement": "phage production", "setting": "[3]; sublethal dose of H2O2", "value": "increase in the phage production was clearly observed"}, {"measurement": "bacterial morphology (filamentation, bacterial length)", "setting": "[4]", "value": "bacterial filamentation was clearly observed"}, {"measurement": "bacterial morphology (filamentation, bacterial length)", "setting": "[4]; listed as hydrogen peroxide", "value": "Increase in bacterial length due to bacterial filamentation"}]}
